This note sets out measurements from patent publication US10150728B2, “Alkylene derivatives” (Shionogi & Co., Ltd., priority 2013, dated 2018).

recombinant human ACC2, sequence (O00763 27-2458): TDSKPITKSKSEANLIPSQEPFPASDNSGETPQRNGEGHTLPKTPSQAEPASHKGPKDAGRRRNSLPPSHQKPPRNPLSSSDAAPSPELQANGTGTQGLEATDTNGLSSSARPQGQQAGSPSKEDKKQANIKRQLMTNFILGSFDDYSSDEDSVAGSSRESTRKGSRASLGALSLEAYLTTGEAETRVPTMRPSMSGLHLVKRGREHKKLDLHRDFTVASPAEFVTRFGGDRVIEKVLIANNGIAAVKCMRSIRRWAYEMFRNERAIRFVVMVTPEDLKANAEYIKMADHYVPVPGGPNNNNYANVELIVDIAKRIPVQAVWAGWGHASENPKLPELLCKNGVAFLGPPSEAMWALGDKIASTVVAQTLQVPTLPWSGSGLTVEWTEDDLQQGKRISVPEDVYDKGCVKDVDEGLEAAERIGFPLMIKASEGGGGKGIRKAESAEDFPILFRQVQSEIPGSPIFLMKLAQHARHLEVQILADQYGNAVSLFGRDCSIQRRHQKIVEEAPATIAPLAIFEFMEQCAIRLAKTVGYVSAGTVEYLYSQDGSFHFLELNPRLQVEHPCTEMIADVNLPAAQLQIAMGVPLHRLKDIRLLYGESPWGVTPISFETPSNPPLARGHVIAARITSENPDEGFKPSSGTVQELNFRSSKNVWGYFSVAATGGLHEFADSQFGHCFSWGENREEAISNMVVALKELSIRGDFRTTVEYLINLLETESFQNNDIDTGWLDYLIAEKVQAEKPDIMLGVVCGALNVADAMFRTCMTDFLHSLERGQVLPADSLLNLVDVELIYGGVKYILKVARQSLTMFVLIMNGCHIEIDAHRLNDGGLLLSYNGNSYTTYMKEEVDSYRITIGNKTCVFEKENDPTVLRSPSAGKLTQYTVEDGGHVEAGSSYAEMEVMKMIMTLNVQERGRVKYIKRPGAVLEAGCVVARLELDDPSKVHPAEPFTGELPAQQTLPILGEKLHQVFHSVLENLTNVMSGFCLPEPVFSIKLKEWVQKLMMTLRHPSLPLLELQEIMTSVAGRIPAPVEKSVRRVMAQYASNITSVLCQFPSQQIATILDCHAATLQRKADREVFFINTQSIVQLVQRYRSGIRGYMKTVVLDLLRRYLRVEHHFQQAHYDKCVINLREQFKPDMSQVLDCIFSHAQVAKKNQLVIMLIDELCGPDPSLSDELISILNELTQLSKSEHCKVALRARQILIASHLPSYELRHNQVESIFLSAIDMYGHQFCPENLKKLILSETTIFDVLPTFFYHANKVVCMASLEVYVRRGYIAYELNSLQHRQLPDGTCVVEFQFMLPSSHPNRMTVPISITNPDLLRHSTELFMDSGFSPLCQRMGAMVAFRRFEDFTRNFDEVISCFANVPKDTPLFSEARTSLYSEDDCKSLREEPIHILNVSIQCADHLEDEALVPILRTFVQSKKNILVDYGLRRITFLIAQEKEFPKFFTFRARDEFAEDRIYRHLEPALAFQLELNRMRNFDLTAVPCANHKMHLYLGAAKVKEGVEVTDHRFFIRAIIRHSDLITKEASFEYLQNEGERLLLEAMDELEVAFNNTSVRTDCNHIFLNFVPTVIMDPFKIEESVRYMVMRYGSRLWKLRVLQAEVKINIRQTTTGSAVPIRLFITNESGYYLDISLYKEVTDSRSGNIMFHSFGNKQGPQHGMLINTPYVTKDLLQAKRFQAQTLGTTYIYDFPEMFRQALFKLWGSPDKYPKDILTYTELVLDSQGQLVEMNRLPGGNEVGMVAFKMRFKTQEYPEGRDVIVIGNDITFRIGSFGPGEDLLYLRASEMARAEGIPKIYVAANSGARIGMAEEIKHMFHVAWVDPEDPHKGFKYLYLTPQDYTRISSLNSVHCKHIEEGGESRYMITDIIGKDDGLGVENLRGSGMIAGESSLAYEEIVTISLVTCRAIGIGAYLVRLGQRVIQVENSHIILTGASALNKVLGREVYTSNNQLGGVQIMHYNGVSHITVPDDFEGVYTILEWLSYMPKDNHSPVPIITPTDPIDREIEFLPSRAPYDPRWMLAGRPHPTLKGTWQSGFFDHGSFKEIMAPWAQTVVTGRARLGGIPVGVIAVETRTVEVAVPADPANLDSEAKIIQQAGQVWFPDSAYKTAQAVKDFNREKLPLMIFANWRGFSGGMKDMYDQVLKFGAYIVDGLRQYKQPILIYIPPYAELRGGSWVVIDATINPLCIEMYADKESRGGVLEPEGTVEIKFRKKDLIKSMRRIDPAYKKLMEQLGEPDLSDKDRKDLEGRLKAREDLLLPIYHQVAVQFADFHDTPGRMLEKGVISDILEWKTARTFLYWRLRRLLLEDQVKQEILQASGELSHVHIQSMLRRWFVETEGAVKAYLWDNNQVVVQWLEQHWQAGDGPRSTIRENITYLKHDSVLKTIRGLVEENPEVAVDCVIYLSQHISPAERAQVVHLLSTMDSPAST

For this test, the target named is recombinant human ACC2 (Homo sapiens (Human), UniProt O00763). Briefly: Measurement of inhibitory activity on human ACC2 (MALDI-TOF MS, acetyl CoA to malonyl CoA conversion). It counts as biochemical. As to conditions: Tables 155-159. A digest of the protocol:
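His-tagged human ACC2 (residues 27–2458) from baculovirus-infected Sf-9 cells was preincubated 1 h in pH 7.4 HEPES-KOH buffer with MgCl2, 6-10 mM potassium citrate, glutathione and BSA. Substrate solution held 1 mM ATP, 0.8 mM acetyl CoA and 25-50 mM bicarbonate. After 1–3 h at room temperature, malonyl CoA/(malonyl+acetyl CoA) was read by negative-mode MALDI-TOF MS; citrate, bicarbonate and time varied by enzyme lot.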
A word on the IC50: it is the midpoint of a concentration-inhibition curve. In the case of `CC(=O)N[C@@H](C)CO[C@H]1C[C@H](COc2ncnc(OCc3ccccc3F)c2Cl)C1` [Compound I-388], the IC50 came to 14 nM.
In the case of `CC(=O)N[C@@H](C)CO[C@H]1C[C@H](COc2ncnc(OCc3cccc(F)c3)c2Cl)C1` [Compound I-389] it was 8 nM.
Then `CC(=O)N[C@@H](C)CO[C@H]1C[C@H](COc2ncnc(OCc3ccc(F)cc3)c2Cl)C1` [Compound I-390], with 7 nM; and `CC(=O)N[C@@H](C)CO[C@H]1C[C@H](COc2ncnc(NCc3ccccc3)c2Cl)C1` [Compound I-391], with 21 nM; and `CC(=O)N[C@@H](C)CO[C@H]1C[C@H](COc2ncnc(OCc3cccnc3)c2Cl)C1` [Compound I-392], with 69 nM.
In the case of `CC(=O)N[C@@H](C)CO[C@H]1C[C@H](COc2ncnc(OCc3ccncc3)c2Cl)C1` [Compound I-393] it was 155 nM.
`CC(=O)N[C@@H](C)CO[C@H]1C[C@](C)(COc2nccc(-c3ccc(F)cc3)c2Cl)C1` [Compound I-394]: the IC50 came to 18 nM.
Then `CC(=O)N[C@@H](C)CO[C@H]1C[C@H](COc2nccc(OCc3ccccc3)c2Cl)C1` [Compound I-395], with 7 nM; and `CC(=O)N[C@@H](C)CO[C@H]1C[C@H](COc2ncnc(OCc3ccc(Cl)cn3)c2Cl)C1` [Compound I-396], with 8 nM.
Then `CC(=O)N[C@@H](C)CO[C@H]1C[C@H](COc2ncnc(Oc3noc4ccccc34)c2Cl)C1` [Compound I-397], with 31 nM; and `CC(=O)N[C@@H](C)CO[C@H]1C[C@H](COc2ncnc(-n3oc4ccccc4c3=O)c2Cl)C1` [Compound I-398], with 115 nM.
In the case of `CC(=O)N[C@@H](C)CO[C@H]1C[C@H](COc2ncnc(Oc3nsc4ccccc34)c2Cl)C1` [Compound I-399] it was 40 nM; in that of `CC(=O)N[C@@H](C)CO[C@]1(C)C[C@@H](COc2nccc(-c3ccc(F)cc3)c2Cl)C1` [Compound I-400], 17 nM; in that of `CC(=O)N[C@@H](C)CO[C@H]1C[C@H](COc2nccc(NCc3ccccc3)c2Cl)C1` [Compound I-401], 23 nM.
As for `CC(=O)N[C@@H](C)CO[C@H]1C[C@H](COc2ncnc(N(C)Cc3ccccc3)c2Cl)C1` [Compound I-402], the IC50 was found to be 83 nM.
In the case of `CC(=O)N[C@@H](C)CO[C@H]1C[C@H](COc2ncnc(OCc3ccc(C)cn3)c2Cl)C1` [Compound I-403] it was 43 nM.
Consider `COc1cccc(COc2ncnc(OC[C@H]3C[C@H](OC[C@H](C)NC(C)=O)C3)c2Cl)n1` [Compound I-404], for which the IC50 was determined as 676 nM.
Then `CC(=O)N[C@@H](C)CO[C@H]1C[C@H](COc2ncnc(OCc3ncccc3F)c2Cl)C1` [Compound I-405], with 62 nM; and `CC(=O)N[C@@H](C)CO[C@H]1C[C@H](COc2ncnc(OCc3cnccn3)c2Cl)C1` [Compound I-406], with 131 nM.
In the case of `CCOc1ccc(COc2ncnc(OC[C@H]3C[C@H](OC[C@H](C)NC(C)=O)C3)c2Cl)cc1` [Compound I-407] it was 533 nM.
As to `CCOc1cccc(COc2ncnc(OC[C@H]3C[C@H](OC[C@H](C)NC(C)=O)C3)c2Cl)c1` [Compound I-408], the IC50 stood at 465 nM.
`CC(=O)N[C@@H](C)CO[C@H]1C[C@H](COc2ncnc(OCc3nccs3)c2Cl)C1` [Compound I-409]: the 50% inhibitory concentration (IC50) amounted to 74 nM.
Then `CC(=O)N[C@@H](C)CO[C@H]1C[C@H](COc2ncnc(OCc3ncc(C)s3)c2Cl)C1` [Compound I-410], with 15 nM.
Then `CC(=O)N[C@@H](C)CO[C@H]1C[C@H](COc2ncnc(OCc3csc(Cl)n3)c2Cl)C1` [Compound I-411], with 937 nM; and `CC(=O)N[C@@H](C)CO[C@H]1C[C@H](COc2ncnc(OCc3cscn3)c2Cl)C1` [Compound I-412], with 42 nM; and `CC(=O)N[C@@H](C)CO[C@H]1C[C@H](COc2nccc(N(C)Cc3ccccc3)c2Cl)C1` [Compound I-413], with 84 nM.
Then `CC(=O)N[C@@H](C)CO[C@H]1C[C@H](COc2nccc(N3CCCC3C)c2Cl)C1` (stereo partly drawn) [Compound I-414], with 59 nM.
With `CC(=O)N[C@@H](C)CO[C@H]1C[C@H](COc2ncnc(OCc3ccccc3)c2C)C1` [Compound I-415], the IC50 was found to be 18 nM.
In the case of `CC(=O)N[C@@H](C)CO[C@H]1C[C@H](COc2ncnc(/C=C/c3ccccc3)c2C)C1` [Compound I-416] it was 90 nM; in that of `CC(=O)N[C@@H](C)CO[C@H]1C[C@H](COc2ncnc(-c3ccc(F)cc3)c2C)C1` [Compound I-417], 451 nM; in that of `CC(=O)N[C@@H](C)CO[C@H]1C[C@H](COc2ncnc(-c3ccc(C(F)(F)F)cc3)c2C)C1` [Compound I-418], 733 nM.
In the case of `CC(=O)N[C@@H](C)CO[C@H]1C[C@H](COc2ncnc(C3=CCCCC3)c2C)C1` [Compound I-419], the IC50 was found to be 109 nM.
Then `COc1ccc(-c2ncnc(OC[C@H]3C[C@H](OC[C@H](C)NC(C)=O)C3)c2C)cc1` [Compound I-420], with 447 nM; and `CC(=O)N[C@@H](C)CO[C@H]1C[C@H](COc2ncnc(OCC3CC3)c2C)C1` [Compound I-421], with 24 nM; and `CC(=O)N[C@@H](C)CO[C@H]1C[C@H](COc2nccc(OC3CC(F)(F)C3)c2Cl)C1` [Compound I-422], with 358 nM.
Then `CC(=O)N[C@@H](C)CO[C@H]1C[C@H](COc2nsc3ccccc23)C1` [Compound I-424], with 122 nM; and `CC(=O)N[C@@H](C)CO[C@H]1C[C@H](COc2ncnc3c2c(I)cn3CC2CC2)C1` [Compound I-425], with 170 nM.
Then `CC(=O)N[C@@H](C)CO[C@H]1C[C@H](COc2ncnc3c2c(C)cn3CC2CC2)C1` [Compound I-426], with 57 nM.
In the case of `CC(=O)N[C@@H](C)CO[C@H]1C[C@H](COc2ncnc3c2c(C#N)cn3CC2CC2)C1` [Compound I-427], the 50% inhibitory concentration (IC50) stood at 270 nM.
`CC(=O)N[C@@H](C)CO[C@H]1C[C@H](COc2nccc3c2cnn3CC2CCC2)C1` [Compound I-428]: the IC50 amounted to 53 nM.
For the molecule `CC(=O)N[C@@H](C)CO[C@H]1C[C@H](COc2ncnc(COc3ccccc3)c2Cl)C1` [Compound I-429], the IC50 was 26 nM.
In the case of `CC(=O)N[C@@H](C)CO[C@H]1C[C@H](COc2ncnc3c2ccn3Cc2ccccc2)C1` [Compound I-430] it was 12 nM; in that of `CC(=O)N[C@@H](C)CO[C@H]1C[C@H](COc2ncnc(OCc3ncco3)c2Cl)C1` [Compound I-431], 809 nM.
Consider `CC(=O)N[C@@H](C)CO[C@H]1C[C@H](COc2ncnc3c2ccn3Cc2ccccn2)C1` [Compound I-432], for which the IC50 was 588 nM.
In the case of `CC(=O)N[C@@H](C)CO[C@H]1C[C@H](COc2nccc(NC(=O)C3CCCCC3)c2Cl)C1` [Compound I-433] it was 11 nM; in that of `CC(=O)N[C@@H](C)CO[C@H]1C[C@H](COc2ncnc3c2ccn3Cc2cccnc2)C1` [Compound I-434], 653 nM.
In the case of `CC(=O)N[C@@H](C)CO[C@H]1C[C@H](COc2ncnc(OCc3ccccn3)c2Cl)C1` [Compound I-435] it was 7 nM.
Then `CC(=O)N[C@@H](C)CO[C@H]1C[C@@H](COc2ncnc(OCc3ccccn3)c2Cl)C1` [Compound I-436], with 4 nM.
